Data reported in patent US20130296434A1, “FORMULATIONS AND METHODS FOR TREATING AMYLOIDOSIS” (Kiacta Sarl, priority 2005, published 2013).

Tests used:
[1] = Pharmacokinetics of single and repeated oral doses of PDS in healthy male subjects; type: in vivo, human; conditions: for AUC(0-t) / Cmax / Tmax: male, po, n = 6; for AUC(0-t) / Cmax: mean; for Tmax: median
Excerpt: (§1) In the following examples, terms are as defined below. The pharmacokinetic parameters were derived by non-compartmental analysis using WinNonlin® (Pharsight Corp., Mountain View, Calif., USA). • Cmax—the maximum observed plasma concentration. • Tmax—the time of occurrence of Cmax. • AUC0-t—the area under the plasma concentration versus time curve from time zero to the last sampling time at which concentrations were at or above the limit of quantification, calculated by the linear trapezoidal rule. • AUC∞—the area under the plasma concentrations versus time curve from time zero to infinity, calculated from AUC0-t+(Clast/λz), where Clast is the last observed quantifiable concentration and λz is the apparent terminal rate constant. • t1/2 the apparent terminal half-life, calculated from ln 2/λz
The safety, tolerability and pharmacokinetics of PDS following multiple rising oral doses in healthy male adult volunteers is determined. This is a randomized, double-blind, placebo-controlled study to assess the pharmacokinetic profile of single and repeated oral doses of PDS at 400, 800 and 1600 mg in healthy male subjects. PDS is administered as a single oral dose to healthy male subjects at 400, 800 and 1600 mg on Days 1 and 7. Following the single oral administration on Day 1, PDS is administered on Days 2, 3, 4, 5 and 6 at 400, 800 and 1600 mg four times daily, or 1600 mg three times daily. Blood samples are collected through 24 hours after the dose on Day 1, before the first and last doses on Days 2 through 6, and after 48 hours after the final dose on Day 7. Plasma concentrations of PDS are determined using validated HPLC methods. Following single and repeated oral doses of PDS maximum plasma concentrations are generally reached within 0.25 to 1 hour post-dose. The mean half-life (T1/2) ranges from 5 to 20 hours after single or multiple dosing. Accumulation after multiple dosing is consistent with the T1/2 and dosing frequency.

[2] = Pharmacokinetics of PDS after single and multiple oral administration in AA amyloidosis patients; type: in vivo; conditions: human, plasma; for AUC(0-t) / Cmax / half-life: po; for half-life: multiple dose oral administration
Excerpt: as §1
The safety, efficacy and pharmacokinetics of PDS after single and multiple oral administration in subjects with AA amyloidosis is determined. This is a multicenter, multinational, randomized, double-blind, placebo-controlled, and parallel-design study to assess the pharmacokinetic profile of single and repeated doses of PDS. Dosing depends on the severity or renal impairment in a subject: subjects having creatinine clearance (ClCr)>80 mL/min receive 1200 mg BID; for ClCr between 30 and 80 mL/min, the subject receives 800 mg BID; and for ClCr between 20 and 30 mL/min, the subject receives 400 mg BID. If ClCr decreases to the next lower range level, the dose regimen is adjusted accordingly. PDS is administered as a single oral dose for a subset of AA amyloidosis patients on Month 0 and 24 visits. Following the single administration on Month 0, PDS is administered twice daily for 24 months. Blood samples are collected through 24 hours after the doses on Month 0 and 24, and through 8 hours after the doses on Month 4, 8, 12 visits. Plasma concentrations of PDS are determined using validated HPLC methods. Following multiple dose oral administration of PDS, the range of accumulation across subjects is 1.75 to 3.44. Based on the accumulation factor, the mean T1/2 calculated is 15 hours with a range of 10 to 24 hours.

[3] = Pharmacokinetic profile of a single oral dose of 800 mg PDS in subjects with varying degrees of renal impairment vs healthy volunteers; type: in vivo; conditions: human, plasma, single oral 800 mg; for AUC(0-inf): mean, only subjects with estimable elimination rate constant; for AUC(0-t): read-out: AUC0-Tlast
Procedure: An open-label, non-randomized, parallel group study to assess the pharmacokinetic profile of a single oral dose of 800 mg 1,3-propanedisulfonic acid disodium salt (PDS) in subjects with varying degrees of renal impairment as compared to healthy volunteers is conducted. Blood and urine samples are collected for 24 hours following dosing. Plasma and urine concentrations in 1,3-propanedisulfonic acid are determined using validated HPLC methods. […] Consequently, a decrease in dose appears to be necessary to maintain an acceptable systemic exposure in patients with impaired renal function.

[4] = human, plasma, 400 mg, 400 mg q.i.d. group, Day 1 (single oral administration)
[5] = human, plasma, 400 mg, 400 mg q.i.d., Day 7 (repeated oral administration)
[6] = human, plasma, 800 mg, 800 mg q.i.d. group, Day 1 (single oral administration)
[7] = human, plasma, 800 mg, 800 mg q.i.d., Day 7 (repeated oral administration)
[8] = human, plasma, 1600 mg, 1600 mg q.i.d group, Day 1 (single oral administration)
[9] = human, plasma, 1600 mg, 1600 mg q.i.d, Day 7 (repeated oral administration)
[10] = human, plasma, 1600 mg, 1600 mg t.i.d. group, Day 1 (single oral administration)
[11] = human, plasma, 1600 mg, 1600 mg t.i.d., Day 7 (repeated oral administration)
[12] = Healthy, GFR >80 mL/min, n = 6, mean
[13] = Mild renal impairment, GFR 50-80 mL/min, n = 6, mean
[14] = Moderate renal impairment, GFR 30-50 mL/min, n = 4, mean
[15] = Severe renal impairment, GFR <30 mL/min, n = 6, mean

O=S(=O)([O-])CCCS(=O)(=O)[O-].[Na+].[Na+] [PDS, 1,3-propanedisulfonic acid, disodium salt]
half-life ([1]; human, plasma, oral, after single or multiple dosing, 400, 800, 1600 mg, healthy male subjects, range of means, read-out: mean half-life (T1/2)): 300 to 1200 min
AUC(0-t) [1, 4]: 1590 ng·h/mL
Cmax [1, 4]: 496 ng/mL
Tmax [1, 4]: 60 min
AUC(0-t) [1, 5]: 10500 ng·h/mL
Cmax [1, 5]: 995 ng/mL
Tmax [1, 5]: 15 min
AUC(0-t) [1, 6]: 5180 ng·h/mL
Cmax [1, 6]: 2680 ng/mL
Tmax [1, 6]: 15 min
AUC(0-t) [1, 7]: 19900 ng·h/mL
Cmax [1, 7]: 1680 ng/mL
Tmax [1, 7]: 15 min
AUC(0-t) [1, 8]: 8300 ng·h/mL
Cmax [1, 8]: 2800 ng/mL
Tmax [1, 8]: 30 min
AUC(0-t) [1, 9]: 24500 ng·h/mL
Cmax [1, 9]: 5480 ng/mL
Tmax [1, 9]: 15 min
AUC(0-t) [1, 10]: 7090 ng·h/mL
Cmax [1, 10]: 2890 ng/mL
Tmax [1, 10]: 22.5 min
AUC(0-t) [1, 11]: 25800 ng·h/mL
Cmax [1, 11]: 4890 ng/mL
Tmax [1, 11]: 30 min
dose dependence of systemic exposure (AUC0-t and Cmax) ([1]; single and repeated oral doses 400, 800, 1600 mg, healthy male subjects): approximately proportional to the administered dose
Tmax ([2]; Dose 400 (mg BID), Month 0 single oral dose, n = 2, mean): 180 min
Tmax ([2]; Dose 400 (mg BID), Month 24 repeated oral doses, n = 3, mean): 110 min
Tmax ([2]; Dose 800 (mg BID), Month 0 single oral dose, n = 5, mean): 177 min
Tmax ([2]; Dose 800 (mg BID), Month 24 repeated oral doses, n = 4, mean): 111 min
Tmax ([2]; Dose 1200 (mg BID), Month 0 single oral dose, n = 4, mean): 41.4 min
Tmax ([2]; Dose 1200 (mg BID), Month 24 repeated oral doses, n = 1): 40.8 min
AUC(0-t) ([2]; 400 mg BID, Month 24 repeated oral doses, n = 3, mean, read-out: AUC(0-12)): 17600 ng·h/mL
AUC(0-t) ([2]; 400 mg BID, Month 24 repeated oral doses, n = 3, mean, read-out: AUC(0-tlast)): 25700 ng·h/mL
AUC(0-t) ([2]; 400 mg, Dose 400 (mg BID), Month 0 single oral dose, n = 2, mean, read-out: AUC(0-12)): 7410 ng·h/mL
AUC(0-t) ([2]; 400 mg, Dose 400 (mg BID), Month 0 single oral dose, n = 2, mean, read-out: AUC(0-tlast)): 11700 ng·h/mL
Cmax ([2]; 400 mg, Dose 400 (mg BID), Month 24 repeated oral doses, n = 3, mean): 2160 ng/mL
Cmax ([2]; 400 mg, Dose 400 (mg BID, ClCr 20-30 mL/min), Month 0 single oral dose, n = 2, mean): 841 ng/mL
Cmax ([2]; 800 mg BID, Month 24 repeated oral doses, n = 4, mean): 1900 ng/mL
AUC(0-t) ([2]; 800 mg BID, Month 24 repeated oral doses, n = 4, mean, read-out: AUC(0-12)): 13700 ng·h/mL
AUC(0-t) ([2]; 800 mg BID, Month 24 repeated oral doses, n = 4, mean, read-out: AUC(0-tlast)): 21200 ng·h/mL
AUC(0-t) ([2]; 800 mg, Dose 800 (mg BID), Month 0 single oral dose, n = 5, mean, read-out: AUC(0-12)): 5950 ng·h/mL
AUC(0-t) ([2]; 800 mg, Dose 800 (mg BID), Month 0 single oral dose, n = 5, mean, read-out: AUC(0-tlast)): 9810 ng·h/mL
Cmax ([2]; 800 mg, Dose 800 (mg BID, ClCr 30-80 mL/min), Month 0 single oral dose, n = 5, mean): 812 ng/mL
Cmax ([2]; 1200 mg BID, Month 24 repeated oral doses, n = 1): 637 ng/mL
AUC(0-t) ([2]; 1200 mg BID, Month 24 repeated oral doses, n = 1, read-out: AUC(0-12)): 4930 ng·h/mL
AUC(0-t) ([2]; 1200 mg BID, Month 24 repeated oral doses, n = 1, read-out: AUC(0-tlast)): 9140 ng·h/mL
AUC(0-t) ([2]; 1200 mg, Dose 1200 (mg BID), Month 0 single oral dose, n = 4, mean, read-out: AUC(0-12)): 4210 ng·h/mL
AUC(0-t) ([2]; 1200 mg, Dose 1200 (mg BID), Month 0 single oral dose, n = 4, mean, read-out: AUC(0-tlast)): 5630 ng·h/mL
Cmax ([2]; 1200 mg, Dose 1200 (mg BID, ClCr >80 mL/min), Month 0 single oral dose, n = 4, mean): 867 ng/mL
half-life ([2]; read-out: mean T1/2 calculated based on the accumulation factor (converted)): 900 min
half-life ([2]; read-out: range of T1/2 calculated based on the accumulation factor): 600 to 1440 min
AUC(0-inf) ([3]; Healthy, GFR >80 mL/min): 5370 ng·h/mL
Cmax [3, 12]: 1240 ng/mL
AUC(0-t) [3, 12]: 3160 ng·h/mL
Tmax ([3]; Healthy, GFR >80 mL/min, n = 6, median): 30 min
AUC(0-inf) ([3]; Mild renal impairment, GFR 50-80 mL/min): 13000 ng·h/mL
Cmax [3, 13]: 3060 ng/mL
AUC(0-t) [3, 13]: 9110 ng·h/mL
Tmax ([3]; Mild renal impairment, GFR 50-80 mL/min, n = 6, median): 30 min
AUC(0-inf) ([3]; Moderate renal impairment, GFR 30-50 mL/min): 10700 ng·h/mL
Cmax [3, 14]: 2100 ng/mL
AUC(0-t) [3, 14]: 9450 ng·h/mL
Tmax ([3]; Moderate renal impairment, GFR 30-50 mL/min, n = 4, median): 30 min
AUC(0-inf) ([3]; Severe renal impairment, GFR <30 mL/min): 43100 ng·h/mL
Cmax [3, 15]: 2210 ng/mL
AUC(0-t) [3, 15]: 29200 ng·h/mL
Tmax ([3]; Severe renal impairment, GFR <30 mL/min, n = 6, median): 150 min
